Earlier results, collected in patent publication US20080317729A1, “Ammonium Salts and Ammonium Salt/Mineral Salt Clathrate Compounds for Use as Vehicle and Effective Form for Pharmaco-Medical Applications and for Use as Phase Transfer Agents for Chemical Applications” (priority 2004, published 2008).

solubility: moderately dissoluble
Structure (SMILES): CCN(CC)CCOC(=O)c1ccc(N)cc1 [diprocainium carbonate]
